The data set is described as follows: Solubility / attainable concentration of OPA in aqueous solution. The format is physicochemical. The text has this:
According to the invention, sufficient acetal is introduced into water and dissolved, so that after acidifying, a 0.025 to 9% strength by weight aqueous OPA solution is obtained. Preference is given to 0.05 to 5% strength by weight solutions, particularly preferably 0.5 to 2% strength by weight solutions.
It is advantageous in the inventive method that, compared with the use of OPA itself, more highly concentrated solutions (9% compared with 5%) can be produced, since the alcohol eliminated by the acidification favors the dissolution of the OPA formed.
In addition, if desired, the alcohol being eliminated can be removed from the solution by distilling it off, as a result of which, however, the solubility is reduced again to 5%.

The source of these data is patent US20060199870A1, “Method for producing aqueous ortho-phthalaldehyde solutions” (DSM Fine Chemicals Austria Nfg GmbH & Co KG, priority 2005, published 2006).

`O=Cc1ccccc1C=O` [OPA, ortho-phthalaldehyde] had a solubility (aqueous solution after the eliminated alcohol is distilled off) of 5%. In addition, the “attainable concentration of aqueous OPA solution” value (solution produced from OPA acetal, alcohol eliminated by the acidification remains in solution) came out at 9% and the “attainable concentration of aqueous OPA solution” value (use of OPA itself dissolved in water) is listed as 5%.
